Test: recombinant barcode read abundance after kanamycin selection (control-corrected) (log10(CPM+1)); higher = more efficient recombination; sequences stand for … in AGTGCAGAGAAAATCGGCCAGTTTTCTCTGCCTGCAGTCCGCATGCCGT…AGATTTATGCAGCGGACTGCCTTTCTCCCAAAGTGATAAACCGGACAGTATCATGGACCGGTTTTCCCGGTAATCCGTATTTGCAAGGTTGGTTTCACT; site = the 11-nt target
In short: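 Recombination efficiency draws on barcodes counted at recombinant junctions in a pooled E. coli screen of targets paired with IS621 bridge RNA target-binding loops. The counts were converted to counts per million, averaged and corrected against the chloramphenicol/ampicillin LB agar control, then reported as log10(CPM+1). Selection plates held chloramphenicol/ampicillin/kanamycin with 0.1 mM IPTG, with two replicates per condition.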
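Note: IS621 recombinase and bridge RNA in Escherichia coli cells.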

Row | Sequence | recombinant barcode read abundance (log10)
1 | TTCATGTCTTGGGTTCTAACCTGTTGCTT (site CTCATGTCTAA) | 0.138
2 | TTCATGTCTTGGGTTCTAACCTGTTGCTT (site TTCATGTCTAA) | 0.421
3 | TTCCACACTTGGGTTCTAACCTGTTGCGG (site TTCCAAACTCC) | 0.116
4 | TTCCACACTTGGGTTCTAACCTGTTGCGG (site TTCCACACTCC) | 1.04
5 | TTCCGCTCTTGGGTTCTAACCTGTTGCCT (site ATCCGCTCTAG) | 0.112
6 | TTCCGCTCTTGGGTTCTAACCTGTTGCCT (site CTCCGCTCTAG) | 0.121
7 | TTCCGCTCTTGGGTTCTAACCTGTTGCCT (site GTCCGCTCTAG) | 0.139
8 | TTCCGCTCTTGGGTTCTAACCTGTTGCCT (site TTCCGCTCTAG) | 1.26
9 | TTCCTAGCTTGGGTTCTAACCTGTTGCCA (site ATCCTAGCTCG) | 0.493
10 | TTCCTAGCTTGGGTTCTAACCTGTTGCCA (site TTCCTAGCTTG) | 0.109
11 | TTCCTGACTTGGGTTCTAACCTGTTGCCT (site CTCCTGCCTAG) | 0.0475
12 | TTCCTGACTTGGGTTCTAACCTGTTGCCT (site TTCCTGACTAG) | 1.69
13 | TTCGACGCTTGGGTTCTAACCTGTTGCCT (site TTAGACTCTAG) | 0.152
14 | TTCGACGCTTGGGTTCTAACCTGTTGCCT (site TTCGACGCTAG) | 1.03
15 | TTCGACTCTTGGGTTCTAACCTGTTGCTA (site TACGACTCTAA) | 0.137
16 | TTCGACTCTTGGGTTCTAACCTGTTGCTA (site TTCGACTCTTA) | 1.07
17 | TTCGGACCTTGGGTTCTAACCTGTTGCGG (site GGGACCACTTA) | 0.677
18 | TTCGGACCTTGGGTTCTAACCTGTTGCGG (site TTCGGACCTCC) | 2.62
19 | TTCTACCCTTGGGTTCTAACCTGTTGCCT (site TACTACCCTAG) | 0.0731
20 | TTCTACCCTTGGGTTCTAACCTGTTGCCT (site TCCTACCCTAG) | 0.149
21 | TTCTACCCTTGGGTTCTAACCTGTTGCCT (site TGCTACCCTAG) | 0.0636

Row | Sequence | recombinant barcode read abundance (log10)
22 | TTCTACCCTTGGGTTCTAACCTGTTGCCT (site TTCTACCCTAG) | 0.449
23 | TTCTAGACTTGGGTTCTAACCTGTTGCCA (site GTCTATACTTG) | 0.16
24 | TTCTAGACTTGGGTTCTAACCTGTTGCCA (site TTCTAGACTTG) | 0.353
25 | TTCTCGCCTTGGGTTCTAACCTGTTGCCT (site TTCACGCCTAG) | 0.0182
26 | TTCTCGCCTTGGGTTCTAACCTGTTGCCT (site TTCCCGCCTAG) | 0.536
27 | TTCTCGCCTTGGGTTCTAACCTGTTGCCT (site TTCGCGCCTAG) | 0.00706
28 | TTCTCGCCTTGGGTTCTAACCTGTTGCCT (site TTCTCGCCTAG) | 0.576
29 | TTCTGTCCTTGGGTTCTAACCTGTTGCCT (site TTCTATCCTAG) | 0.0361
30 | TTCTGTCCTTGGGTTCTAACCTGTTGCCT (site TTCTCTCCTAG) | 0.0821
31 | TTCTGTCCTTGGGTTCTAACCTGTTGCCT (site TTCTGTCCTAG) | 0.799
32 | TTCTGTCCTTGGGTTCTAACCTGTTGCCT (site TTCTTTCCTAG) | 0.0428
33 | TTCTGTTCTTGGGTTCTAACCTGTTGCCT (site TTCTCTTCTAG) | 0.0281
34 | TTCTGTTCTTGGGTTCTAACCTGTTGCCT (site TTCTGTTCTAG) | 0.196
35 | TTCTTAACTTGGGTTCTAACCTGTTGCGG (site ACTGATCCTAT) | 0.0323
36 | TTCTTAACTTGGGTTCTAACCTGTTGCGG (site TTCTTAACTCC) | 0.532
37 | TTGAACCCTTGGGTTCTAACCTGTTGCGT (site ATGAACCCTAC) | 0.303
38 | TTGAACCCTTGGGTTCTAACCTGTTGCGT (site TTGAACCCTAC) | 1.63
39 | TTGAAGCCTTGGGTTCTAACCTGTTGCCT (site ATGAAGCCTAG) | 0.41
40 | TTGAAGCCTTGGGTTCTAACCTGTTGCCT (site CTGAAGCCTAG) | 0.0479
41 | TTGAAGCCTTGGGTTCTAACCTGTTGCCT (site GTGAAGCCTAG) | 0.0341
42 | TTGAAGCCTTGGGTTCTAACCTGTTGCCT (site TTGAAGCCTAG) | 1.38

Row | Sequence | recombinant barcode read abundance (log10)
43 | TTGAATTCTTGGGTTCTAACCTGTTGCTT (site TTGAATTCTAA) | 0.0275
44 | TTGAATTCTTGGGTTCTAACCTGTTGCTT (site TTGTATTCTAG) | 0.234
45 | TTGACACCTTGGGTTCTAACCTGTTGCCT (site GGAGTCACTCC) | 0.0713
46 | TTGACACCTTGGGTTCTAACCTGTTGCCT (site TTGACACCTAG) | 1.1
47 | TTGACTGCTTGGGTTCTAACCTGTTGCCT (site TTGAATGCTAG) | 0.0744
48 | TTGACTGCTTGGGTTCTAACCTGTTGCCT (site TTGACTGCTAG) | 0.812
49 | TTGACTGCTTGGGTTCTAACCTGTTGCCT (site TTGAGTGCTAG) | 0.0596
50 | TTGACTGCTTGGGTTCTAACCTGTTGCCT (site TTGATTGCTAG) | 0.0272
51 | TTGATATCTTGGGTTCTAACCTGTTGCCT (site TTGAAATCTAG) | 0.0834
52 | TTGATATCTTGGGTTCTAACCTGTTGCCT (site TTGACATCTAG) | 0.264
53 | TTGATATCTTGGGTTCTAACCTGTTGCCT (site TTGAGATCTAG) | 0.0244
54 | TTGATATCTTGGGTTCTAACCTGTTGCCT (site TTGATATCTAG) | 0.149
55 | TTGATGACTTGGGTTCTAACCTGTTGCCT (site TTGATGACTAG) | 1.25
56 | TTGATGACTTGGGTTCTAACCTGTTGCCT (site TTGTAGACTAG) | 0.103
57 | TTGCATTCTTGGGTTCTAACCTGTTGCTG (site AAAGGGGCTAG) | 0.147
58 | TTGCATTCTTGGGTTCTAACCTGTTGCTG (site TTGCATTCTCA) | 0.962
59 | TTGCGGCCTTGGGTTCTAACCTGTTGCAG (site CAAACTACTTG) | 0.0363
60 | TTGCGGCCTTGGGTTCTAACCTGTTGCAG (site TTGCGGCCTCT) | 1.78
61 | TTGGACACTTGGGTTCTAACCTGTTGCCT (site TTGGACACTAG) | 2.33
62 | TTGGACACTTGGGTTCTAACCTGTTGCCT (site TTGGCCACTAG) | 0.0571
63 | TTGGACACTTGGGTTCTAACCTGTTGCCT (site TTGGGCACTAG) | 0.327

Row | Sequence | recombinant barcode read abundance (log10)
64 | TTGGACACTTGGGTTCTAACCTGTTGCCT (site TTGGTCACTAG) | 0.227
65 | TTGGACGCTTGGGTTCTAACCTGTTGCCT (site TTGGACGCTAG) | 2.37
66 | TTGGACGCTTGGGTTCTAACCTGTTGCCT (site TTGGCCGCTAG) | 0.335
67 | TTGGACGCTTGGGTTCTAACCTGTTGCCT (site TTGGGCGCTAG) | 0.838
68 | TTGGACGCTTGGGTTCTAACCTGTTGCCT (site TTGGTCGCTAG) | 0.133
69 | TTGGGTGCTTGGGTTCTAACCTGTTGCCG (site TTGGGTGCTCG) | 1.81
70 | TTGGGTGCTTGGGTTCTAACCTGTTGCCG (site TTGGGTTCTAG) | 0.0649
71 | TTGGTTCCTTGGGTTCTAACCTGTTGCCT (site TTGGTACCTAG) | 0.155
72 | TTGGTTCCTTGGGTTCTAACCTGTTGCCT (site TTGGTCCCTAG) | 0.0439
73 | TTGGTTCCTTGGGTTCTAACCTGTTGCCT (site TTGGTGCCTAG) | 0.43
74 | TTGGTTCCTTGGGTTCTAACCTGTTGCCT (site TTGGTTCCTAG) | 2.07
75 | TTGTAAGCTTGGGTTCTAACCTGTTGCCG (site TTGTAAGCTCG) | 0.653
76 | TTGTAAGCTTGGGTTCTAACCTGTTGCCG (site TTGTGAGCTCC) | 0.441
77 | TTGTACACTTGGGTTCTAACCTGTTGCCC (site CACATGCCTCA) | 0.452
78 | TTGTACACTTGGGTTCTAACCTGTTGCCC (site TTGTACACTGG) | 0.996
79 | TTGTCTCCTTGGGTTCTAACCTGTTGCCT (site ATGTCTCCTAG) | 0.0689
80 | TTGTCTCCTTGGGTTCTAACCTGTTGCCT (site CTGTCTCCTAG) | 0.0237
81 | TTGTCTCCTTGGGTTCTAACCTGTTGCCT (site GTGTCTCCTAG) | 0.109
82 | TTGTCTCCTTGGGTTCTAACCTGTTGCCT (site TTGTCTCCTAG) | 0.304
83 | TTGTGTTCTTGGGTTCTAACCTGTTGCTT (site TTGTACTCTAA) | 0.00637
84 | TTGTGTTCTTGGGTTCTAACCTGTTGCTT (site TTGTGTTCTAA) | 0.159

Source: the supplement of paper PMC11208160
